Data: US12077607B2, “Functional and therapeutic effects of PAR4 cleavage by cathepsin G” (UNIVERSITY OF UTAH RESEARCH FOUNDATION, priority 2021, dated 2024)
Changes are numbered by the printed parent chain.

Assays:
PAR4-R68E = molecular target: T1, PAR4-R68E (Homo sapiens, UniProt Q96RI0, R68E); assay: PAR4 mutant calcium flux assay, HEK293T/17 cells, R68E; assay type: cell-based; conditions: 100 nM vorapaxar
T1 construct: Flag; expressed in transfected cells; host or cells: HEK293T/17 (ATCC CRL-11268)
T1 sequence (Q96RI0 18-385 R68E): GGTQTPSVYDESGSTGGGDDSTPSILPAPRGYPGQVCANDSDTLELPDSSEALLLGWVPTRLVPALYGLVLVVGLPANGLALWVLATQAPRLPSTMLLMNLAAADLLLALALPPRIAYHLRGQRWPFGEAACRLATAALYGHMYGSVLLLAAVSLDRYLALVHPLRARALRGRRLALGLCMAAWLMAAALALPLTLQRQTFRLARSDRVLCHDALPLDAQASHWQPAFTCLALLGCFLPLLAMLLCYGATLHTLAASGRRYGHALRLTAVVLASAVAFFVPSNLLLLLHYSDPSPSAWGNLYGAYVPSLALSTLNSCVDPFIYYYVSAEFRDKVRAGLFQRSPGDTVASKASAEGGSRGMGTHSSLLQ
Procedure: (§1) PAR4 mutant calcium flux assays. Using Quikchange Lightning Site-Directed mutagenesis (Agilent) per manufacturing instructions, pCMV-Flag-PAR4-S66E, pCMV-Flag-PAR4-S67E, and pCMV-Flag-PAR4-R68E were generated from mutation of pCMV-Flag-PAR4 and confirmed by sequencing (University of Utah DNA Sequencing Core). Prior to transfection, HEK293T/17 cells (ATCC CRL-11268) were seeded at 4.5×10^4/mL. The following day, cells were transfected with the plasmid of interest using Lipofectamine 2000 (Invitrogen, Carlsbad, CA, USA). Twenty-four hours after transfection, media was removed and replaced with Optimem w/Glutamax (Gibco, Carlsbad, CA, USA) containing vorapaxar (100 nM) (Cayman Chemical, Ann Arbor, MI, USA) and Fura2-QBT (Molecular Devices). Following incubation for 1 hour at 37° C., plate was placed in the Flexstation 3 (Molecular Devices) where agonists, Tyrode's Buffer, cathepsin G (2.5 μM), or α-thrombin (1.5 U/mL), were injected onto cells and calcium mobilization was monitored and recorded.

washed platelets [1] = assay: Platelet activation by flow cytometry (PAC-1 binding, P-selectin); assay type: cell-based, human
Procedure: Platelet isolation, aggregation, and activation. Human washed platelets were prepared and resuspended in Tyrode's Buffer at 2×10^8/mL as described (Edelstein et al., Nat Med. 2013; 19(12):1609-1616). For human and dog platelet comparisons, platelets were prepared using a modified human platelet protocol with final concentrations of […] (Cayman Chemical, Ann Arbor, MI, USA) used during centrifugation steps. Centrifugations after Tyrode's washes was decreased to 1,250×g as described in Cremer et al., PLOS One. 2019; 14(11): e0224891. Platelet aggregation was measured under stirring conditions at 37° C. using a PAP-8E aggregometer after treatment with the following agonists: arachidonic acid (Bio/Data Corporation, Horsham, PA, USA), cathepsin G, elastase, proteinase 3 (Athens Research Group), α-thrombin (Sigma, St. Louis, MO, USA), PAR-1 peptide (SFLLRN) (GL Biochem, China). P-selectin and PAC-1 were measured as previously described (Yee et al., J Thromb Haemost. 2006; 4(9):2043-2050; Tourdot et al., Arterioscler Thromb Vasc Biol. 2014; 34(12):2644-2650).
(§2) GYPGQV-NH2 (SEQ ID NO: 5), RALLLGWVPTR-NH2 (SEQ ID NO: 1), ALLLGWVPTR-NH2 (SEQ ID NO: 2), RALLLG-NH2 (SEQ ID NO: 4). Peptides were synthesized by BIOMATIK (Wilmington, DE, USA) at similar purities. All peptides were suspended in 50% DMSO and 50% ethanol. To measure platelet activation, washed platelets were stimulated with various concentrations of the peptide in the presence of CD41-APC, P-selectin (PE) and PAC-1 (FITC) for 15 minutes at 37° C. and then fixed with FACS Lysis Buffer. Samples were immediately run on a Cytoflex flow cytometer. In some experiments, platelets were stimulated with peptides and platelet aggregation performed as described above. Platelet calcium flux was induced by RALLLGWVPTR (2 mM; SEQ ID NO: 1), CatG (500 nM), ALLLGWVPTR (2 mM; SEQ ID NO: 2) or tyrodes buffer and monitored as described above.

WT human PAR4 (hPAR4) = molecular target: T2, WT human PAR4 (hPAR4) (Homo sapiens, UniProt Q96RI0); assay: PAR4 calcium flux assay in HEK293T/17 cells expressing WT PAR4; assay type: cell-based; conditions: CatG 2.5 μM; 100 nM vorapaxar
T2 construct: Flag; expressed in transfected cells; host or cells: HEK293T/17 (ATCC CRL-11268)
T2 sequence (Q96RI0 18-385): T1 sequence (Q96RI0 18-385 R68E) with E51R
Procedure: PAR4 calcium flux assays. PAR4-dependent calcium flux was measured using Fura2-QBT in platelets and HEK293T/17 cells with wild-type (WT) and mutant PAR4 (Tourdot et al., Arterioscler Thromb Vasc Biol. 2014; 34(12):2644-2650).
as §1

washed platelets [2] = assay: Platelet calcium flux assay; assay type: cell-based, human; conditions: CatG 500 nM
Procedure: Platelet calcium flux assay. Washed platelets were incubated at 37° C. for 1 hour in Tyrode's buffer (supplemented with pgel and heparin) with Fura-2AM (final concentration 2 μM). Platelets were washed and resuspended to a final concentration of 4×10^8/mL. Platelets were dispensed into a Costar 96-well half area clear bottom plate and placed in the Flexstation 3 (Molecular Devices) where cathepsin G (500 nM), buffer, or peptides (2 mM) were injected onto cells and calcium flux monitored.
as §2

[3] = CatG stimulation, increasing concentrations

Substance | thrombin-induced calcium flux, R68E mutant compared with WT (PAR4-R68E; thrombin 1.5 U/mL) | P-selectin expression, PAR4 Thr120 homozygous platelets compared with Ala120 (washed platelets [1]; [3]) | αIIbβ3 activation, PAR4 Thr120 homozygous platelets compared with Ala120 (washed platelets [1]; [3]) | αIIbβ3 activation (PAC-1 binding) induced by neutrophil serine protease (washed platelets [1]; washed platelets, varying concentrations) | CatG-induced calcium flux, WT PAR4 compared with mock transfection (WT human PAR4 (hPAR4)) | CatG-induced calcium flux, R68E mutant compared with WT (PAR4-R68E; CatG 2.5 μM, P<0.001) | peak platelet calcium flux, CatG compared with RALLLGWVPTR (washed platelets [2]; RA-11mer 2 mM) | platelet calcium flux (washed platelets [2]; peptides 2 mM, FURA2-AM loaded washed platelets)
thrombin | None of the PAR4 mutants were significantly different than WT | – | – | – | – | – | – | –
CatG: serine protease cathepsin G released by activated neutrophils | – | modest but significantly greater | modest but significantly greater | only protease to induce | increased calcium flux | significantly less calcium flux than WT | similar | decreased over time
